Drawing on patent US20170349593A1, “BTK INHIBITORS” (MERCK SHARP & DOHME CORP., priority 2014, published 2017), this text covers IC50 for 20 compounds.

A value given as a limit tells only on which side of the number the result lay.

The target in experiment [1] is T1, BTK enzyme (recombinant full-length BTK, hBTK) (Homo sapiens, UniProt Q06187).
T1 construct: recombinant protein from baculovirus-transfected S 19 cells: full-length BTK, 6 HIS-tag cleaved; 6 HIS-tag (cleaved yes); made in house
Kind of experiment: Btk enzyme activity assay (LANCE TR-FRET). Type of experiment: biochemical. Conditions: 50 pM hBTK, 25 μM ATP, 60 minute compound and enzyme incubation, concentration range 1 μM to 0.017 nM, read-out: BTK binding IC50. In general terms: TR-FRET usually uses a lanthanide donor and a delayed reading to cut background.

In experiment [2] the test system is adenosine uptake into HeLa cells. Kind of experiment: [3H]Adenosine uptake assay. Type of experiment: cell-based. Conditions: Homo sapiens; accumulation of [3H]adenosine into HeLa cells; concentration range 10 μM to 0.032 nM; read-out: ADU inhibition IC50. In a few lines:
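HeLa cells (25 000/well), plated overnight, were preincubated 30 minutes at ambient temperature with compound in HBSS + 5% FBS. Ten-point titrations ran from 10 μM to 0.032 nM final. [3H]adenosine was added from a 500 nM solution for 60 minutes, and uptake was measured by scintillation proximity counting; IC50 came from a 4-parameter fit.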

T1 sequence (Q06187 whole entry): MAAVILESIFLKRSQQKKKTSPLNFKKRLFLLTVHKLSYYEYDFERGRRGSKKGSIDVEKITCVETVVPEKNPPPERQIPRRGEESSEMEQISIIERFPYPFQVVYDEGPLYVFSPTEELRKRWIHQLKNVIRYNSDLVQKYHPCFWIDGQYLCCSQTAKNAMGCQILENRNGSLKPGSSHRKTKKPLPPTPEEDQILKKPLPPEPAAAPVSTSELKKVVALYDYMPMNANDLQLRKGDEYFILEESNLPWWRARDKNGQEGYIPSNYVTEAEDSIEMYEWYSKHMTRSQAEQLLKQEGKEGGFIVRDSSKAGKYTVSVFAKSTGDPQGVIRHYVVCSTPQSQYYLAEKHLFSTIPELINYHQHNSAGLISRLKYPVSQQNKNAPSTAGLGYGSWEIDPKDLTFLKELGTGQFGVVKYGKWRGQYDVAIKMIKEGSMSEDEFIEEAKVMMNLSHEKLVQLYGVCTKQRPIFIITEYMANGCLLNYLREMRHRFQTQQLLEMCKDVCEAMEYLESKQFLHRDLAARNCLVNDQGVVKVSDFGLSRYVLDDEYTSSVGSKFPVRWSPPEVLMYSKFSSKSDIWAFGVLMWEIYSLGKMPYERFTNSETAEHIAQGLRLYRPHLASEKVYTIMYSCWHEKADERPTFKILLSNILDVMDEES

In general, IC50 refers to the point on the concentration scale where inhibition reaches its midpoint. As for `CCc1cnc(N)c2c(-c3ccc(C(=O)Nc4cc(C(F)(F)F)ccn4)cc3F)nc([C@H]3CN(C(=O)C4CC4)[C@@H](C)CO3)n12` [Example 110, 4-{8-amino-3-[(2R,5S)-4-(cyclopropylcarbonyl)-5-methylmorpholin-2-yl]-5-ethylimidazo[1,5-a]pyrazin-1-yl}-3-fluoro-N-[4-(trifluoromethyl)pyridin-2-yl]benzamide], the results for the concentration for half-maximal inhibition (IC50) in experiment [1] and in experiment [2] were 0.674 nM and 533 nM, respectively.
As to `CNc1c(N[C@H]2C[C@H](c3nc(-c4ccc(C(=O)Nc5cc(C(F)(F)F)ccn5)cc4)c4c(N)nccn43)C2)c(=O)c1=O` [Example 113, 4-[8-amino-3-(trans-3-{[2-(methylamino)-3,4-dioxocyclobut-1-en-1-yl]amino}cyclobutyl)imidazo[1,5-a]pyrazin-1-yl]-N-[4-(trifluoromethyl)pyridin-2-yl]benzamide], the IC50 in experiment [1] was determined as 0.166 nM; in experiment [2], 2940 nM.
For `C[C@@H]1CO[C@@H](c2nc(-c3ccc(C(=O)Nc4cc(C(F)(F)F)ccn4)cc3F)c3c(N)nccn23)CN1Cc1cnn(C)c1` [Example 72, 4-(8-amino-3-{(2R,5R)-5-methyl-4-[(1-methyl-1H-pyrazol-4-yl)methyl]morpholin-2-yl}imidazo[1,5-a]pyrazin-1-yl)-3-fluoro-N-[4-(trifluoromethyl)pyridin-2-yl]benzamide], the IC50 in experiment [1] stood at 1.45 nM; in experiment [2] it was 138 nM.
As to `CCOc1cc(C(=O)Nc2cc(C(F)(F)F)ccn2)ccc1-c1nc([C@H]2CN(C(=O)C3(C)CC3)[C@@H](C)CO2)n2c(Cl)cnc(N)c12` [Example 12, 4-(8-amino-5-chloro-3-{(2R,5S)-5-methyl-4-[(1-methylcyclopropyl)carbonyl]morpholin-2-yl}imidazo[1,5-a]pyrazin-1-yl)-3-ethoxy-N-[4-(trifluoromethyl)pyridin-2-yl]benzamide], the IC50 in experiment [1] is 1.1 nM; in experiment [2], not below 10000 nM.
Take `CCOc1cc(C(=O)Nc2cc(C(F)(F)F)ccn2)ccc1-c1nc([C@H]2CN(C(=O)[C@@H](C)O)[C@@H](C)CO2)n2c(Cl)cnc(N)c12` [Example 11, 4-(8-amino-5-chloro-3-{(2R,5S)-4-[(2R)-2-hydroxypropanoyl]-5-methylmorpholin-2-yl}imidazo[1,5-a]pyrazin-1-yl)-3-ethoxy-N-[4-(trifluoromethyl)pyridin-2-yl]benzamide]: the concentration for half-maximal inhibition (IC50) in experiment [1] amounted to 1.42 nM; in experiment [2], 3120 nM.
For the compound `COc1cc(C(=O)Nc2cc(C(F)(F)F)ccn2)ccc1-c1nc([C@H]2CN(C(=O)[C@H](C)OC)[C@@H](C)CO2)n2ccnc(N)c12` [Example 51, 4-(8-amino-3-{(2R,5S)-4-[(2S)-2-methoxypropanoyl]-5-methylmorpholin-2-yl}imidazo[1,5-a]pyrazin-1-yl)-3-methoxy-N-[4-(trifluoromethyl)pyridin-2-yl]benzamide], the values for the half-inhibitory concentration (IC50) in experiment [1] and in experiment [2] were 4.31 nM and 1410 nM, respectively.
Take `C[C@@H]1CO[C@@H](c2nc(-c3ccc(C(=O)Nc4cc(C(F)(F)F)ccn4)cc3F)c3c(N)nccn23)CN1C(=O)C1(C)CC1` [Example 69, 4-(8-amino-3-{(2R,5R)-5-methyl-4-[(1-methylcyclopropyl)carbonyl]morpholin-2-yl}imidazo[1,5-a]pyrazin-1-yl)-3-fluoro-N-[4-(trifluoromethyl)pyridin-2-yl]benzamide]: the IC50 amounted to 10.9 nM in experiment [1] and 139 nM in experiment [2].
Take `COc1cc(C(=O)Nc2cc(C(F)(F)F)ccn2)ccc1-c1nc([C@H]2CN(C3CCOCC3)[C@@H](C)CO2)n2ccnc(N)c12` [Example 60, 4-{8-amino-3-[(2R,5S)-5-methyl-4-(tetrahydro-2H-pyran-4-yl)morpholin-2-yl]imidazo[1,5-a]pyrazin-1-yl}-3-methoxy-N-[4-(trifluoromethyl)pyridin-2-yl]benzamide]: the half-inhibitory concentration (IC50) was found to be 1.57 nM in experiment [1] and 1620 nM in experiment [2].
The matching figures for `Nc1nccn2c([C@H]3CN[C@H](CO)CO3)nc(-c3ccc(C(=O)Nc4cc(C(F)(F)F)ccn4)cc3F)c12` [Example 67, 4-{8-amino-3-[(2R,5R)-5-(hydroxymethyl)morpholin-2-yl]imidazo[1,5-a]pyrazin-1-yl}-3-fluoro-N-[4-(trifluoromethyl)pyridin-2-yl]benzamide]: 1.97 nM and 129 nM.
For `CCOc1cc(C(=O)Nc2cc(C(F)(F)F)n(C)n2)ccc1-c1nc([C@H]2CN(C(=O)C3CC3)[C@@H](C)CO2)n2c(Cl)cnc(N)c12` [Example 5, 4-{8-amino-5-chloro-3-[(2R,5S)-4-(cyclopropylcarbonyl)-5-methylmorpholin-2-yl]imidazo[1,5-a]pyrazin-1-yl}-3-ethoxy-N-[1-methyl-5-(trifluoromethyl)-1H-pyrazol-3-yl]benzamide], the IC50 in experiment [1] is 7.14 nM; in experiment [2], not below 10000 nM.
As to `C[C@H]1CO[C@@H](c2nc(-c3ccc(C(=O)Nc4cc(C5CC5)ccn4)cc3F)c3c(N)ncc(Cl)n23)CN1C1CCOCC1` [Example 44, 4-{8-amino-5-chloro-3-[(2R,5S)-5-methyl-4-(tetrahydro-2H-pyran-4-yl)morpholin-2-yl]imidazo[1,5-a]pyrazin-1-yl}-N-(4-cyclopropylpyridin-2-yl)-3-fluorobenzamide], the half-inhibitory concentration (IC50) was determined as 0.358 nM in experiment [1] and 362 nM in experiment [2].
For `C[C@H]1CO[C@@H](c2nc(-c3ccc(C(=O)Nc4cc(C(F)(F)F)ccn4)cc3F)c3c(N)ncc(Cl)n23)CN1C(=O)C1CC1` [Example 41, 4-{8-amino-5-chloro-3-[(2R,5S)-4-(cyclopropylcarbonyl)-5-methylmorpholin-2-yl]imidazo[1,5-a]pyrazin-1-yl}-3-fluoro-N-[4-(trifluoromethyl)pyridin-2-yl]benzamide] the same measures were 0.626 nM and 383 nM.
Consider `C[C@H]1CO[C@@H](c2nc(-c3ccc(C(=O)Nc4cc(C(F)(F)F)ccn4)cc3F)c3c(N)nccn23)CN1C1COC1` [Example 76, 4-{8-amino-3-[(2R,5S)-5-methyl-4-oxetan-3-ylmorpholin-2-yl]imidazo[1,5-a]pyrazin-1-yl}-3-fluoro-N-[4-(trifluoromethyl)pyridin-2-yl]benzamide], for which the values for the IC50 in experiment [1] and in experiment [2] were 0.531 nM and 237 nM, respectively.
On to `CCOc1cc(C(=O)Nc2cc(C(F)(F)F)ccn2)ccc1-c1nc([C@H]2CN(Cc3cnn(C)c3)[C@@H](C)CO2)n2c(Cl)cnc(N)c12` [Example 23, 4-(8-amino-5-chloro-3-{(2R,5S)-5-methyl-4-[(1-methyl-1H-pyrazol-4-yl)methyl]morpholin-2-yl}imidazo[1,5-a]pyrazin-1-yl)-3-ethoxy-N-[4-(trifluoromethyl)pyridin-2-yl]benzamide], for which the IC50 in experiment [1] stood at 3.02 nM; in experiment [2], 1200 nM.
For the compound `C[C@H](O)C(=O)N1C[C@H](c2nc(-c3ccc(C(=O)Nc4cc(C(F)(F)F)ccn4)cc3)c3c(N)nccn23)OC[C@@H]1C` [Example 80, 4-(8-amino-3-{(2R,5S)-4-[(2S)-2-hydroxypropanoyl]-5-methylmorpholin-2-yl}imidazo[1,5-a]pyrazin-1-yl)-N-[4-(trifluoromethyl)pyridin-2-yl]benzamide], the half-maximal inhibitory concentration (IC50) worked out at 0.4 nM in experiment [1] and 188 nM in experiment [2].
With `COc1cc(C(=O)Nc2cc(C(F)(F)F)ccn2)ccc1-c1nc([C@H]2CN(C(C)=O)[C@@H](C)CO2)n2c(Cl)cnc(N)c12` [Example 17, 4-{3-[(2R,5S)-4-acetyl-5-methylmorpholin-2-yl]-8-amino-5-chloroimidazo[1,5-a]pyrazin-1-yl}-3-methoxy-N-[4-(trifluoromethyl)pyridin-2-yl]benzamide], the values for the IC50 in experiment [1] and in experiment [2] were 2.27 nM and 1620 nM, respectively.
On to `CCOc1cc(C(=O)Nc2cc(C(F)(F)F)ccn2)ccc1-c1nc([C@@H]2CC[C@@H](C(F)(F)F)N(C(=O)C3CC3)C2)n2ccnc(N)c12` [Example 4, 4-{8-amino-3-[(3R,6S)-1-(cyclopropylcarbonyl)-6-(trifluoromethyl)piperidin-3-yl]imidazo[1,5-a]pyrazin-1-yl}-3-ethoxy-N-[4-(trifluoromethyl)pyridin-2-yl]benzamide], for which the IC50 in experiment [1] was 39.4 nM; in experiment [2], 1060 nM.
As for `C[C@H]1CC[C@@H](c2nc(-c3ccc(C(=O)Nc4cc(OC5CC5)ccn4)cc3)c3c(N)nccn23)CN1C(=O)N(C)C` [Example 90, (2S,5R)-5-[8-amino-1-(4-{[4-(cyclopropyloxy)pyridin-2-yl]carbamoyl}phenyl)imidazo[1,5-a]pyrazin-3-yl]-N,N,2-trimethylpiperidine-1-carboxamide], the results for the half-inhibitory concentration (IC50) in experiment [1] and in experiment [2] were 0.448 nM and 14 nM, respectively.
Turning to `COc1cc(C(=O)Nc2cc(C(F)(F)F)ccn2)ccc1-c1nc([C@H]2CN(C(=O)C3CN(Cc4c(F)cccc4F)C3)[C@@H](C)CO2)n2ccnc(N)c12` [Example 35, 4-{8-amino-3-[(2R,5S)-4-{[1-(2,6-difluorobenzyl)azetidin-3-yl]carbonyl}-5-methylmorpholin-2-yl]imidazo[1,5-a]pyrazin-1-yl}-3-methoxy-N-[4-(trifluoromethyl)pyridin-2-yl]benzamide], the IC50 turned out to be 3.21 nM in experiment [1] and 747 nM in experiment [2].
As for `CCOc1cc(C(=O)Nc2cc(C(F)(F)F)ccn2)cc(F)c1-c1nc([C@H]2CN(C(=O)[C@@H](C)O)[C@@H](C)CO2)n2c(Cl)cnc(N)c12` [Example 107, 4-(8-amino-5-chloro-3-{(2R,5S)-4-[(2R)-2-hydroxypropanoyl]-5-methylmorpholin-2-yl}imidazo[1,5-a]pyrazin-1-yl)-3-ethoxy-5-fluoro-N-[4-(trifluoromethyl)pyridin-2-yl]benzamide], the half-maximal inhibitory concentration (IC50) in experiment [1] worked out at 0.479 nM; in experiment [2], 1990 nM.
